{"source": "ChEMBL document CHEMBL4507311", "about": "“Data for DCP probe A-1155463” (2021)", "key": {"[1]": {"molecular_target": "Bone morphogenetic protein receptor type-1A (Homo sapiens) (UniProt P36894)", "conditions": "Compound concentration 1000.0 nM"}, "[2]": {"molecular_target": "Phosphatidylinositol 3-kinase C2 domain-containing subunit gamma (Homo sapiens) (UniProt O75747)", "conditions": "Compound concentration 1000.0 nM"}, "[3]": {"molecular_target": "Platelet-derived growth factor receptor alpha (Homo sapiens) (UniProt P16234)", "conditions": "Compound concentration 1000.0 nM"}, "[4]": {"molecular_target": "Tyrosine-protein kinase JAK3 (Homo sapiens) (UniProt P52333)", "conditions": "Compound concentration 1000.0 nM"}, "[5]": {"molecular_target": "Fibroblast growth factor receptor 2 (Homo sapiens) (UniProt P21802)", "sequence (P21802 22-821 limits assumed)": "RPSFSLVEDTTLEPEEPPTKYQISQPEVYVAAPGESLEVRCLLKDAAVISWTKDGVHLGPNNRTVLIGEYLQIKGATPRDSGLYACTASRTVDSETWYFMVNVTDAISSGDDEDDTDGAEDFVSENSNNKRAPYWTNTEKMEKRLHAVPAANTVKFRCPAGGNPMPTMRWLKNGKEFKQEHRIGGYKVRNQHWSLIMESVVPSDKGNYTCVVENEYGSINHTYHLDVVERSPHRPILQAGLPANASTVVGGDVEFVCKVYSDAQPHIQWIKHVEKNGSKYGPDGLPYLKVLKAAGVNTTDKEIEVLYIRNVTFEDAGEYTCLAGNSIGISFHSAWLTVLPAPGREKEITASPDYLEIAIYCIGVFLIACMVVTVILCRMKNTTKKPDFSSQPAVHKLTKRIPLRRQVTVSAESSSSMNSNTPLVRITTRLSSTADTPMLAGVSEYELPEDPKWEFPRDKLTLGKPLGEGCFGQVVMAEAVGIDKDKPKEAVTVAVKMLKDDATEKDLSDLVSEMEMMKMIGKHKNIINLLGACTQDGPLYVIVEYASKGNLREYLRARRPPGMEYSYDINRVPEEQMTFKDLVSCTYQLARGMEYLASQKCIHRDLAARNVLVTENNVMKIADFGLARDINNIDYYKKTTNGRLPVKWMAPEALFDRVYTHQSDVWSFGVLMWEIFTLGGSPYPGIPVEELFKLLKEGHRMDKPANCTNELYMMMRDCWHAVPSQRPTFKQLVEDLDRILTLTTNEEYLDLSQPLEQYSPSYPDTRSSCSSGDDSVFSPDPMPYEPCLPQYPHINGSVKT", "conditions": "Compound concentration 1000.0 nM"}, "[6]": {"molecular_target": "Rho-associated protein kinase 2 (Homo sapiens) (UniProt O75116)", "conditions": "Compound concentration 1000.0 nM"}, "[7]": {"molecular_target": "Serine/threonine-protein kinase N1 (Homo sapiens) (UniProt Q16512)", "conditions": "Compound concentration 1000.0 nM"}, "[8]": {"molecular_target": "MAP/microtubule affinity-regulating kinase 4 (Homo sapiens) (UniProt Q96L34)", "conditions": "Compound concentration 1000.0 nM"}, "[9]": {"system": "Serine/threonine-protein kinase B-raf (Homo sapiens), P15056 [V600E]", "conditions": "Compound concentration 1000.0 nM"}, "[10]": {"molecular_target": "Sigma intracellular receptor 2 (Homo sapiens, UniProt Q5BJF2)", "sequence (Q5BJF2 whole entry)": "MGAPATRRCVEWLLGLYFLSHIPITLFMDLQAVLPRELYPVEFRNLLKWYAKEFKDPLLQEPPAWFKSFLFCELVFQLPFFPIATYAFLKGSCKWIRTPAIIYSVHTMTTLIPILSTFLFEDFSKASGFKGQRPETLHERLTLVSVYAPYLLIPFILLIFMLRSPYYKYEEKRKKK", "assay": "GPCRScan assay: inhibition of Sigma 2", "parameters": "radioligand conc. used [nm] 5.0, parental cells HEKT"}, "[11]": {"molecular_target": "Serine/threonine-protein kinase TAO3 (Homo sapiens) (UniProt Q9H2K8)", "conditions": "Compound concentration 1000.0 nM"}, "[12]": {"molecular_target": "Serine/threonine-protein kinase PAK 6 (Homo sapiens) (UniProt Q9NQU5)", "conditions": "Compound concentration 1000.0 nM"}, "[13]": {"molecular_target": "Tyrosine-protein kinase JAK2 (Homo sapiens) (UniProt O60674)", "conditions": "Compound concentration 1000.0 nM"}, "[14]": {"molecular_target": "Atypical kinase COQ8A, mitochondrial (Homo sapiens) (UniProt Q8NI60)", "conditions": "Compound concentration 1000.0 nM"}, "[15]": {"molecular_target": "1-phosphatidylinositol 3-phosphate 5-kinase (Homo sapiens) (UniProt Q9Y2I7)", "conditions": "Compound concentration 1000.0 nM"}, "[16]": {"molecular_target": "Mitogen-activated protein kinase kinase kinase 12 (Homo sapiens) (UniProt Q12852)", "conditions": "Compound concentration 1000.0 nM"}, "[17]": {"molecular_target": "Serine/threonine-protein kinase OSR1 (Homo sapiens) (UniProt O95747)", "sequence (O95747 2-527 limits assumed)": "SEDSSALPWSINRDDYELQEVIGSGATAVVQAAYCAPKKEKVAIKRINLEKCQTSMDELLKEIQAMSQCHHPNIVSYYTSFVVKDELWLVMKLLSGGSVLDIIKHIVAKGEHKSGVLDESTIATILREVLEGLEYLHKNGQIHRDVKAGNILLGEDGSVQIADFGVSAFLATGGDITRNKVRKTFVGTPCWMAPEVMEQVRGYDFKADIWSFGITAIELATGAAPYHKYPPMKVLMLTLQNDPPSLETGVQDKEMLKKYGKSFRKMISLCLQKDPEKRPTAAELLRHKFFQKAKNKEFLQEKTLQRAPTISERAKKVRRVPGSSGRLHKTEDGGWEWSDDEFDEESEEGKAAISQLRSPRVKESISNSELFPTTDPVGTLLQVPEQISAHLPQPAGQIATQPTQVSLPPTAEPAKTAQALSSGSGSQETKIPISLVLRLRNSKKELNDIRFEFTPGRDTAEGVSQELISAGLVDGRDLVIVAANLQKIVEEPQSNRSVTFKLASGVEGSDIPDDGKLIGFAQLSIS", "conditions": "Compound concentration 1000.0 nM"}, "[18]": {"system": "Tyrosine-protein kinase ABL1 (Homo sapiens), P00519 [H396P]", "conditions": "Compound concentration 1000.0 nM"}, "[19]": {"system": "Epidermal growth factor receptor (Homo sapiens), P00533 [L861Q]", "conditions": "Compound concentration 1000.0 nM"}, "[20]": {"molecular_target": "Dual specificity protein kinase TTK (Homo sapiens) (UniProt P33981)", "conditions": "Compound concentration 1000.0 nM"}, "[21]": {"molecular_target": "Mitotic checkpoint serine/threonine-protein kinase BUB1 (Homo sapiens) (UniProt O43683)", "conditions": "Compound concentration 1000.0 nM"}, "[22]": {"molecular_target": "Cyclin-dependent kinase-like 5 (Homo sapiens) (UniProt O76039)", "conditions": "Compound concentration 1000.0 nM"}, "[23]": {"molecular_target": "Dual specificity mitogen-activated protein kinase kinase 5 (Homo sapiens) (UniProt Q13163)", "conditions": "Compound concentration 1000.0 nM"}, "[24]": {"molecular_target": "Calcium/calmodulin-dependent protein kinase type 1 (Homo sapiens) (UniProt Q14012)", "sequence (Q14012 whole entry, looked up)": "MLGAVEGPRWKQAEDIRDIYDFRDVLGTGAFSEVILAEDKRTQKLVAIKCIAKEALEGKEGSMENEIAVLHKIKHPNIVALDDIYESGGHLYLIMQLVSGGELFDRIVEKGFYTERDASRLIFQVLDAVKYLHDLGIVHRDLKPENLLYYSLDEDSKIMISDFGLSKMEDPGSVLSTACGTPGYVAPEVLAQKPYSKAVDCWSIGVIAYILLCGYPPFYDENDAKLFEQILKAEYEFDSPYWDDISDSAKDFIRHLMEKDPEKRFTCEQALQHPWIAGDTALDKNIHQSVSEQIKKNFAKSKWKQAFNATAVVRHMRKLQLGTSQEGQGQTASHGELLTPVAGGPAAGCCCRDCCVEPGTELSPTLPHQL", "conditions": "Compound concentration 1000.0 nM"}, "[25]": {"system": "Proto-oncogene tyrosine-protein kinase receptor Ret (Homo sapiens), P07949 [V804M]", "conditions": "Compound concentration 1000.0 nM"}, "[26]": {"molecular_target": "Delta-type opioid receptor (Homo sapiens, UniProt P41143)", "assay": "GPCRScan assay: inhibition of DOR", "parameters": "radioligand conc. used [nm] 1.0 – 2.0, parental cells stable HEK"}, "[27]": {"molecular_target": "Ephrin type-A receptor 8 (Homo sapiens) (UniProt P29322)", "conditions": "Compound concentration 1000.0 nM"}, "[28]": {"molecular_target": "Activin receptor type-2B (Homo sapiens) (UniProt Q13705)", "conditions": "Compound concentration 1000.0 nM"}, "[29]": {"molecular_target": "Macrophage colony-stimulating factor 1 receptor (Homo sapiens) (UniProt P07333)", "conditions": "Compound concentration 1000.0 nM"}, "[30]": {"molecular_target": "Focal adhesion kinase 1 (Homo sapiens) (UniProt Q05397)", "sequence (Q05397 2-1052 limits assumed)": "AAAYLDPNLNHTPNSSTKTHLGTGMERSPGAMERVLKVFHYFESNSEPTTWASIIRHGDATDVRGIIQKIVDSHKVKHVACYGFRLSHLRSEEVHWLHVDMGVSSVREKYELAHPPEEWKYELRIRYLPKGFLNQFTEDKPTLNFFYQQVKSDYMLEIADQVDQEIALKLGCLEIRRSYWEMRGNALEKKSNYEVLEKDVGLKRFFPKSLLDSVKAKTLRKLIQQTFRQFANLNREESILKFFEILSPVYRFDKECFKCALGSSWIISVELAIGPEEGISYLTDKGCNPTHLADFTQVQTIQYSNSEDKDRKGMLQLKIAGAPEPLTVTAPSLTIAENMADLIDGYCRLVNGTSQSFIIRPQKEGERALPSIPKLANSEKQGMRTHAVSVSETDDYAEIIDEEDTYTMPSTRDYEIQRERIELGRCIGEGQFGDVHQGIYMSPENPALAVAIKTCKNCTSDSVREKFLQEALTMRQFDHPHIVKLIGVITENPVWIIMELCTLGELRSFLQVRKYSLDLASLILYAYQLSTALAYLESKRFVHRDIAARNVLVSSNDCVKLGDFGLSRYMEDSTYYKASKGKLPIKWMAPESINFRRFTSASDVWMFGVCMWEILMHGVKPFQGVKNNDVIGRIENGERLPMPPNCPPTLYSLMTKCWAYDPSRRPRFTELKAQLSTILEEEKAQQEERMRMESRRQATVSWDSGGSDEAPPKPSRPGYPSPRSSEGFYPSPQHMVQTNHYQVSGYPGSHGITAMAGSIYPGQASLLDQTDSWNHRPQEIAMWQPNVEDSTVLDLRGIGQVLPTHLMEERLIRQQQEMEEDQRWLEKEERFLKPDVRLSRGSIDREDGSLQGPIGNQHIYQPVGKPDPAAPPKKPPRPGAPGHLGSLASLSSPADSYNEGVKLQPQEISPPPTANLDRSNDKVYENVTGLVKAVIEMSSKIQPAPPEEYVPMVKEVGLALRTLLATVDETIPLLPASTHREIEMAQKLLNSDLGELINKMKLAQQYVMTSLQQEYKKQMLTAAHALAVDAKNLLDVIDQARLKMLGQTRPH", "conditions": "Compound concentration 1000.0 nM"}, "[31]": {"molecular_target": "Interleukin-1 receptor-associated kinase 1 (Homo sapiens) (UniProt P51617)", "conditions": "Compound concentration 1000.0 nM"}, "[32]": {"molecular_target": "Mitogen-activated protein kinase 6 (Homo sapiens) (UniProt Q16659)", "conditions": "Compound concentration 1000.0 nM"}, "[33]": {"molecular_target": "Ephrin type-A receptor 4 (Homo sapiens) (UniProt P54764)", "sequence (P54764 whole entry)": "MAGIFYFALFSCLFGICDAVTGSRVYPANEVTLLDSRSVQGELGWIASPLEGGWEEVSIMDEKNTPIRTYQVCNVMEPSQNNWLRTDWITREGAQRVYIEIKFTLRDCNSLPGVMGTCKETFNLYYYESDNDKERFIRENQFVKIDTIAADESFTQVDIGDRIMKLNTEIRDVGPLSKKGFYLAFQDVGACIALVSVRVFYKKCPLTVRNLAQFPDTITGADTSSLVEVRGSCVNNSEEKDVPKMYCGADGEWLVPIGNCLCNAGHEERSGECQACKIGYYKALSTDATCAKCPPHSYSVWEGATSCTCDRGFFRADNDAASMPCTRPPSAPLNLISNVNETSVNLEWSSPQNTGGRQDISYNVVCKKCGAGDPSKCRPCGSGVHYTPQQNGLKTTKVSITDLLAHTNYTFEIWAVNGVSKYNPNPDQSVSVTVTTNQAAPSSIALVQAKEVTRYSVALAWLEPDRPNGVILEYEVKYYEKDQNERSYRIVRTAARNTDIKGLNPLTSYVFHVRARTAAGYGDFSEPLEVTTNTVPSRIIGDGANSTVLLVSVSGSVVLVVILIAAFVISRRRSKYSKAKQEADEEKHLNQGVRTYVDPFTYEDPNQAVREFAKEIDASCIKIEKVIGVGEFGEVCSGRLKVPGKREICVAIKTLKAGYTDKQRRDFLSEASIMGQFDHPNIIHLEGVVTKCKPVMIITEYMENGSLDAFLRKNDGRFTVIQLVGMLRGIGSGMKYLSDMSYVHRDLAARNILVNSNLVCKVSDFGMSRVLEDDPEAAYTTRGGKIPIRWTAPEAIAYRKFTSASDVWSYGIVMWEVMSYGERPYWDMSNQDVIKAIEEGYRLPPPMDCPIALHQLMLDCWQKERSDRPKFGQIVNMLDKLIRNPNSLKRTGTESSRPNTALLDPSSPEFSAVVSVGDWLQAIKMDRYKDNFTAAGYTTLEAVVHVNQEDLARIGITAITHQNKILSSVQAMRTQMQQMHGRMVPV", "conditions": "Compound concentration 1000.0 nM"}, "[34]": {"molecular_target": "Serine/threonine-protein kinase SIK3 (Homo sapiens) (UniProt Q9Y2K2)", "conditions": "Compound concentration 1000.0 nM"}, "[35]": {"molecular_target": "Tyrosine-protein kinase JAK1 (Homo sapiens) (UniProt P23458)", "sequence (P23458 whole entry)": "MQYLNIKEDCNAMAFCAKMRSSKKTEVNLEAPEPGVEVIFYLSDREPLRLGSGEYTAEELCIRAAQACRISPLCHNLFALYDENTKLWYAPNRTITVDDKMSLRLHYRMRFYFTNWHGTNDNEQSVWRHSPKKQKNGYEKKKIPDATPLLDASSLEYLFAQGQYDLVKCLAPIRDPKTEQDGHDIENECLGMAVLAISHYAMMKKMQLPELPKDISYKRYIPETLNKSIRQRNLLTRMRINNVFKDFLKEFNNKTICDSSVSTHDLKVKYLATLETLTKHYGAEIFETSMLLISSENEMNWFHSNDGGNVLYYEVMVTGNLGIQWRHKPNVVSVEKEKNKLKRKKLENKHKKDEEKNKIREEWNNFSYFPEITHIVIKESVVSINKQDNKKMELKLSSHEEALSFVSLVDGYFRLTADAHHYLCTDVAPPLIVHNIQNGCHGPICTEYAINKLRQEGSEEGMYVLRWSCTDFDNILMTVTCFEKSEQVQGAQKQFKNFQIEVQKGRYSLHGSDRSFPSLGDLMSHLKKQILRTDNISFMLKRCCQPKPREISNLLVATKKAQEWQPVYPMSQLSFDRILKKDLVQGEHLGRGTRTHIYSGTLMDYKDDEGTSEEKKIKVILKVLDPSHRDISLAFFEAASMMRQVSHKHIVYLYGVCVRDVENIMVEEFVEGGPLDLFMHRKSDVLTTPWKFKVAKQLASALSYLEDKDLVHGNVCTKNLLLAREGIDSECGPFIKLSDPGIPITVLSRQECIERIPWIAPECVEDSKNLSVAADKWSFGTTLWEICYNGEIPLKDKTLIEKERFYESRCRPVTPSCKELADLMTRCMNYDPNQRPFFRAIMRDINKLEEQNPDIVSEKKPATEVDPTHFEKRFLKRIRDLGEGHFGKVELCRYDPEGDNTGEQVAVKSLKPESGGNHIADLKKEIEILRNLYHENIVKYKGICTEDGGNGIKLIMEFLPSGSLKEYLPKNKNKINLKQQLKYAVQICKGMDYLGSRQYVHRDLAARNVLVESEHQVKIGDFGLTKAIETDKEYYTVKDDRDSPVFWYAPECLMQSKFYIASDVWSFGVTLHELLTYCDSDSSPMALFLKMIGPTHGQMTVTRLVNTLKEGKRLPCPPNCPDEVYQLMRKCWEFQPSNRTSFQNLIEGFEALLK", "conditions": "Compound concentration 1000.0 nM"}, "[36]": {"molecular_target": "Bone morphogenetic protein receptor type-2 (Homo sapiens) (UniProt Q13873)", "conditions": "Compound concentration 1000.0 nM"}, "[37]": {"molecular_target": "Protein kinase C eta type (Homo sapiens) (UniProt P24723)", "conditions": "Compound concentration 1000.0 nM"}, "[38]": {"molecular_target": "Serine/threonine-protein kinase LATS2 (Homo sapiens) (UniProt Q9NRM7)", "conditions": "Compound concentration 1000.0 nM"}, "[39]": {"molecular_target": "MAP kinase-interacting serine/threonine-protein kinase 2 (Homo sapiens) (UniProt Q9HBH9)", "conditions": "Compound concentration 1000.0 nM"}, "[40]": {"molecular_target": "Casein kinase I isoform gamma-1 (Homo sapiens) (UniProt Q9HCP0)", "conditions": "Compound concentration 1000.0 nM"}, "[41]": {"molecular_target": "Insulin receptor (Homo sapiens) (UniProt P06213)", "conditions": "Compound concentration 1000.0 nM"}, "[42]": {"molecular_target": "Alpha-1D adrenergic receptor (Homo sapiens) (UniProt P25100)", "conditions": "Compound concentration 10.0 uM"}, "[43]": {"molecular_target": "Tyrosine-protein kinase Mer (Homo sapiens) (UniProt Q12866)", "conditions": "Compound concentration 1000.0 nM"}, "[44]": {"molecular_target": "Epidermal growth factor receptor (Homo sapiens) (UniProt P00533)", "conditions": "Compound concentration 1000.0 nM"}, "[45]": {"molecular_target": "Serine/threonine-protein kinase haspin (Homo sapiens) (UniProt Q8TF76)", "conditions": "Compound concentration 1000.0 nM"}, "[46]": {"molecular_target": "5'-AMP-activated protein kinase catalytic subunit alpha-1 (Homo sapiens) (UniProt Q13131)", "conditions": "Compound concentration 1000.0 nM"}}, "data": [{"smiles": "CN(C)CC#Cc1ccc(OCCCc2sc(N3CCc4cccc(C(=O)Nc5nc6ccccc6s5)c4C3)nc2C(=O)O)c(F)c1", "note": "[A-1155463]", "values": [{"measurement": "residual activity", "setting": "[1]", "result": 99, "unit": "%"}, {"measurement": "residual activity", "setting": "[2]", "result": 100, "unit": "%"}, {"measurement": "residual activity", "setting": "[3]", "result": 100, "unit": "%"}, {"measurement": "residual activity", "setting": "[4]", "result": 58, "unit": "%"}, {"measurement": "residual activity", "setting": "[5]", "result": 98, "unit": "%"}, {"measurement": "residual activity", "setting": "[6]", "result": 100, "unit": "%"}, {"measurement": "residual activity", "setting": "[7]", "result": 91, "unit": "%"}, {"measurement": "residual activity", "setting": "[8]", "result": 76, "unit": "%"}, {"measurement": "residual activity", "setting": "[9]", "result": 79, "unit": "%"}, {"measurement": "Ki", "setting": "[10]", "result": 0.806, "unit": "µM"}, {"measurement": "residual activity", "setting": "[11]", "result": 100, "unit": "%"}, {"measurement": "residual activity", "setting": "[12]", "result": 100, "unit": "%"}, {"measurement": "residual activity", "setting": "[13]", "result": 100, "unit": "%"}, {"measurement": "residual activity", "setting": "[14]", "result": 100, "unit": "%"}, {"measurement": "residual activity", "setting": "[15]", "result": 100, "unit": "%"}, {"measurement": "residual activity", "setting": "[16]", "result": 100, "unit": "%"}, {"measurement": "residual activity", "setting": "[17]", "result": 86, "unit": "%"}, {"measurement": "residual activity", "setting": "[18]", "result": 100, "unit": "%"}, {"measurement": "residual activity", "setting": "[19]", "result": 100, "unit": "%"}, {"measurement": "residual activity", "setting": "[20]", "result": 92, "unit": "%"}, {"measurement": "residual activity", "setting": "[21]", "result": 81, "unit": "%"}, {"measurement": "residual activity", "setting": "[22]", "result": 96, "unit": "%"}, {"measurement": "residual activity", "setting": "[23]", "result": 100, "unit": "%"}, {"measurement": "residual activity", "setting": "[24]", "result": 93, "unit": "%"}, {"measurement": "residual activity", "setting": "[25]", "result": 98, "unit": "%"}, {"measurement": "Ki", "setting": "[26]", "result": 2.12, "unit": "µM"}, {"measurement": "residual activity", "setting": "[27]", "result": 100, "unit": "%"}, {"measurement": "residual activity", "setting": "[28]", "result": 100, "unit": "%"}, {"measurement": "residual activity", "setting": "[29]", "result": 100, "unit": "%"}, {"measurement": "residual activity", "setting": "[30]", "result": 100, "unit": "%"}, {"measurement": "residual activity", "setting": "[31]", "result": 100, "unit": "%"}, {"measurement": "residual activity", "setting": "[32]", "result": 94, "unit": "%"}, {"measurement": "residual activity", "setting": "[33]", "result": 88, "unit": "%"}, {"measurement": "residual activity", "setting": "[34]", "result": 77, "unit": "%"}, {"measurement": "residual activity", "setting": "[35]", "result": 97, "unit": "%"}, {"measurement": "residual activity", "setting": "[36]", "result": 100, "unit": "%"}, {"measurement": "residual activity", "setting": "[37]", "result": 74, "unit": "%"}, {"measurement": "residual activity", "setting": "[38]", "result": 95, "unit": "%"}, {"measurement": "residual activity", "setting": "[39]", "result": 75, "unit": "%"}, {"measurement": "residual activity", "setting": "[40]", "result": 91, "unit": "%"}, {"measurement": "residual activity", "setting": "[41]", "result": 92, "unit": "%"}, {"measurement": "inhibition", "setting": "[42]", "result": 1.52, "unit": "%"}, {"measurement": "residual activity", "setting": "[43]", "result": 100, "unit": "%"}, {"measurement": "residual activity", "setting": "[44]", "result": 87, "unit": "%"}, {"measurement": "residual activity", "setting": "[45]", "result": 100, "unit": "%"}, {"measurement": "residual activity", "setting": "[46]", "result": 100, "unit": "%"}]}]}
